Assay results reported in patent US12384777B2 (Tay Therapeutics Limited, priority 2019, dated 2025).
Where two headings read alike, the source gives them in different places.

What was measured:
[1] = test system: primary keratinocytes stimulated by polyinosinic:polycytidylic acid; assay: Cellular activity broad panel: reduction of cytokine/chemokine levels in stimulated primary keratinocytes; type: cell-based; conditions: Homo sapiens, Keratinocyte
Protocol: • 1. Seed Primary Human Keratinocytes cells (PHK) at 9000 cells/well in a flat bottom 96 well plate. • 2. […] Cells are cultured for 24 hr prior to TLR ligand stimulation (polyinosinic:polycytidylic acid). • 4. Cells are treated with 20 μg/mL polyinosinic:polycytidylic acid for 48 hrs in 180 μL of media and treated for different compounds or controls. • 5. Supernatant is collected and Chemokine and Cytokines analysis is performed by Magpix-Luminex. Immunoassay Procedure Day 1 • 1. Add 200 μL of Assay Buffer per well. Shake 10 min, RT. Decant. • 2. Add 25 μL of Standard or Control to the appropriate wells. • 3. Add 25 μL of Assay Buffer to background and sample wells. • 4. Add 25 μL of cell media to background, standard and control wells. • 5. Add 25 μL neat samples to sample wells. • 6. Add 25 μL of Beads to each well. • 7. Incubate overnight (16-18 hr) at 4° C. Day 2 • 8. Remove well contents and wash 2× with 200 μL Wash buffer. • 9. Add 25 μL of Detection Antibodies per well. • 10. Incubate 1 hr at RT (20-25° C.). • 11. […] Incubate for 30 min at RT. • 13. Remove well contents and wash 2× with 200 μL Wash buffer. • 14. Add 150 μL of Wash Buffer per well. Resuspend the beads on a plate shaker for 5 min. • 15. Read on Luminex 100 μl (50 beads per bead set).

[2] = test system: healthy human skin stimulated by a Th2 or Th17 biasing cocktail; assay: Th2 and Th17 stimulation of human skin explants, IL-4 / IL-17A mRNA; type: cell-based
Protocol: • 1. Freshly excised healthy human skin tissue from abdominoplasties is defatted, cleaned and sectioned into 7 mm biopsies. • 2. The biopsies are placed in Transwell® inserts with the epidermis apical and exposed to air and the dermis submerged in media in the basal chamber. • 3. The biopsies are pre-treated overnight at 37° C., 5% CO2 with different compounds and controls added to the media in the basal chamber. • 4. The next day, contents of the basal chamber is replaced with fresh media containing the test compound and a stimulation cocktail for either Th2 inflammation (proprietary Medpharm cocktail) or Th17 inflammation (mix of antibodies against CD3, CD28, IL-4, IFNγ and recombinant IL-1β, IL-6, IL-21, TGF-β). • 5. The biopsies are incubated at 37° C., 5% CO2 for a further 24 hrs. • 6. After harvesting, the biopsies are cut in half, and one half is homogenized and used for RNA extraction by standard methods. IL-4 or IL-17A is assessed by RT-qPCR.

BRD2(1) = BRD2(1) (Homo sapiens (Human), UniProt P25440); assay: Bromodomain binding assay, BRD2(1); conditions: single point, screened at 30 times Kd; lower numbers indicate stronger hits
Sequence of BRD2(1) (P25440 74-180): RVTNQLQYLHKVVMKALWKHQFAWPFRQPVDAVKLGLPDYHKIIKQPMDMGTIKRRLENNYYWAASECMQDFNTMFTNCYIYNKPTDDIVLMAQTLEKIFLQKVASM
Protocol: (§1) T7 phage strains displaying bromodomains were grown in parallel in 24-well blocks in an E. coli host derived from the BL21 strain. E. coli were grown to log-phase and infected with T7 phage from a frozen stock (multiplicity of infection=0.4) and incubated with shaking at 32° C. until lysis (90-150 min). The lysates were centrifuged (5,000×g) and filtered (0.2 μm) to remove cell debris. Streptavidin-coated magnetic beads were treated with biotinylated small molecule or acetylated peptide ligands for 30 min at RT to generate affinity resins for bromodomain assays. The ligated beads were blocked with excess biotin and washed with blocking buffer (SeaBlock (Pierce), 1% BSA, 0.05% Tween 20, 1 mM DTT) to remove unbound ligand and to reduce non-specific phage binding. Binding reactions were assembled by combining bromodomains, ligated affinity beads, and test compounds in 1× binding buffer (16% SeaBlock, 0.32×PBS, 0.02% BSA, 0.04% Tween 20, 0.004% Sodium azide, 7.9 mM DTT). Test compounds were prepared as 1000× stocks in 100% DMSO and subsequently diluted 1:25 in MEG. The compounds were then diluted directly into the assays such that the final concentrations of DMSO and MEG were 0.1% and 2.4%, respectively. All reactions were performed in polypropylene 384-well plates in a final volume of 0.02 ml. The assay plates were incubated at RT with shaking for 1 hr and the affinity beads were washed with wash buffer (1×PBS, 0.05% Tween 20). The beads were then re-suspended in elution buffer (1×PBS, 0.05% Tween 20, 2 μM non-biotinylated affinity ligand) and incubated at RT with shaking for 30 min. The bromodomain concentration in the eluates was measured by quantitative polymerase chain reaction (qPCR).
(§2) An 11-point 3-fold serial dilution of each test compound was prepared in 100% DMSO at 1000× final test concentration. […] Most dissociation constants were determined using a compound top concentration=10,000 nM. If the initial dissociation constant determined was <0.169 nM (the lowest concentration tested), the measurement was repeated with a serial dilution starting at a lower top concentration. […]

BRDT(1) = BRDT(1) (Homo sapiens (Human), UniProt Q58F21); assay: Bromodomain binding assay, BRDT(1); conditions: single point, screened at 30 times Kd; lower numbers indicate stronger hits
Protocol: as §1, §2

BRD2(2) = BRD2(2) (Homo sapiens (Human), UniProt P25440); assay: Bromodomain binding assay, BRD2(2); conditions: single point, screened at 30 times Kd; lower numbers indicate stronger hits
Sequence of BRD2(2) (P25440 344-453): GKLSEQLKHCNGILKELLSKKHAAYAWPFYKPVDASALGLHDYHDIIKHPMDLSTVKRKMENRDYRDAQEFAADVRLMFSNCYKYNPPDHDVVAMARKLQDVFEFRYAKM
Protocol: as §1, §2

[3] = test system: CD4+ T-cells stimulated by CD2, CD3 and CD28 antibodies; assay: Cellular activity IL-4: reduction of IL-4 levels in activated CD4+ T-cells; type: cell-based, human; conditions: Homo sapiens, T-cell
[4] = disease relevant markers, read-out: cellular EC50 values in stimulated human primary keratinocytes
[5] = poly I:C 20 μg/mL, 48 hrs, read-out: EC50 reduction of CCL2
[6] = poly I:C 20 μg/mL, 48 hrs, read-out: EC50 reduction of CCL20
[7] = poly I:C 20 μg/mL, 48 hrs, read-out: EC50 reduction of CCL27
[8] = poly I:C 20 μg/mL, 48 hrs, read-out: EC50 reduction of CXCL9
[9] = poly I:C 20 μg/mL, 48 hrs, read-out: EC50 reduction of GM-CSF
[10] = poly I:C 20 μg/mL, 48 hrs, read-out: EC50 reduction of IL-1a
[11] = poly I:C 20 μg/mL, 48 hrs, read-out: EC50 reduction of IL-6
[12] = poly I:C 20 μg/mL, 48 hrs, read-out: EC50 reduction of IL-8
[13] = poly I:C 20 μg/mL, 48 hrs, read-out: EC50 reduction of TNF-a
[14] = poly I:C 20 μg/mL, 48 hrs, read-out: EC50 reduction of TSLP
[15] = 48 hrs, ELISA, read-out: EC50 reduction of IL-4 levels
[16] = read-out: cellular EC50 values, reduction of IL-4 levels

| EC50 [1, 4] | EC50 [1, 5] | EC50 [1, 6] | EC50 [1, 7] | EC50 [1, 8] | EC50 [1, 9] | EC50 [1, 10] | EC50 [1, 11] | EC50 [1, 12] | EC50 [1, 13] | EC50 [1, 14] | BRD2(1) % Ctrl (BRD2(1)) | BRDT(1) % Ctrl (BRDT(1)) | BRD2(2) % Ctrl (BRD2(2)) | EC50 [3, 15] | EC50 [3, 16] | SMILES | % reduction in IL-4 mRNA (IL-4) ([2]; 2.5 μM, Th2 biasing cocktail) | % reduction in IL-17A mRNA (IL-17) ([2]; 2.5 μM, Th17 biasing cocktail) | reduction of IL-4 or IL-17 levels ([2]; Th2 or Th17 biasing cocktail) |
| --- | --- | --- | --- | --- | --- | --- | --- | --- | --- | --- | --- | --- | --- | --- | --- | --- | --- | --- | --- |
| < 100 nM | 10 to 100 nM | 10 to 100 nM | 10 to 100 nM | ≤ 10 nM | ≤ 10 nM | ≤ 10 nM | 10 to 100 nM | ≤ 10 nM | ≤ 10 nM | 10 to 100 nM | 0 % Ctrl | 0 % Ctrl | 0.6 % Ctrl | ≤ 10 nM | < 100 nM | Cn1cc(-c2cccc(O)c2Oc2ccccc2)c2cc[nH]c2c1=O [Example 1, 4-(3-hydroxy-2-phenoxyphenyl)-6-methyl-1,6-dihydro-7H-pyrrolo[2,3-c]pyridin-7-one] | +++ (> 75% reduction) | +++ (> 75% reduction) | > 50% |
| < 100 nM | ≤ 10 nM | ≤ 10 nM | 10 to 100 nM | ≤ 10 nM | ≤ 10 nM | ≤ 10 nM | 10 to 100 nM | ≤ 10 nM | ≤ 10 nM | ≤ 10 nM | – | – | – | 10 to 100 nM | < 100 nM | Cn1cc(-c2c(O)cccc2Oc2ccccc2)c2cc[nH]c2c1=O [Example 3, 4-(2-hydroxy-6-phenoxyphenyl)-6-methyl-1,6-dihydro-7H-pyrrolo[2,3-c]pyridin-7-one] | – | – | – |
